Test results from patent publication US8541464B2, “Treatment of atrial fibrillation” (HUYA Biosciences International LLC, priority 2009, dated 2013).
Where “and” joins values, the source holds several entries; their conditions need not be identical. Identical values can stand only once.

Legend:
dogs = test: Heart rate and blood pressure during slow (45 min) infusion in dogs; type: in vivo, dog; conditions: for Heart rate / Mean blood pressure: 14 mg/kg i.v. over 45 minutes
Procedure: Three additional animals received sulcardine sulfate (14 mg/kg, i.v.) infused over 45 minutes. The purpose of this study was to investigate whether or not a slow infusion (45 min) of sulcardine sulfate would affect heart rate and blood pressure. […] The change in blood pressure was modest, most likely due to a compensatory increase in the resting heart rate.

anesthetized dogs = test: Cardiovascular safety in anesthetized dogs, escalating 15-minute IV infusions (hemodynamics, histamine, ECG); type: in vivo, dog
Procedure: (§1) Dogs were administered morphine (2 mg/kg subcutaneously) approximately 10-19 minutes prior to administration of anesthesia. Dogs were anesthetized with 1% α-chloralose (100 mg/kg intravenous), followed by a constant infusion of α-chloralose (35-75 mg/kg/hr, IV). Two healthy female dogs were administered escalating doses of sulcardine sulfate intravenously over 15 minutes in an acetate buffer system at dose levels of 10, 30 and 90-mg/kg with dose administrations separated by 60 minutes. Following drug administration, dogs were evaluated for ventricular, pulmonary and peripheral hemodynamic changes using Swanz Ganz and femoral catheters as well as by monitoring of blood oxygen saturation, test article blood level, body temperature, blood biochemistries, hematologies, ECG, and histamine.
as §1, with “90 mg/kg” for “90-mg/kg”, “minutes. Another set of two dogs received test article after pre-treatment with diphenhydramine (1 mg/kg administered 30 minutes prior to start of test article infusion).” for “minutes.”, “biochemistry, hematology,” for “biochemistries, hematologies,”, “histamine levels.” for “histamine.”

[1] = Plasma concentration in dog cardiovascular safety study; type: in vivo
Procedure: as §1
The mean peak sulcardine sulfate concentrations which peaked generally at the […] of each 15 minute infusion of sulcardine sulfate at 10, 30 and 90 mg/kg were 1.8, 11.2 and 100.1 μg/mL respectively which translated into approximately 4, 24.6 and 218 μM.

[2] = Plasma PK in Beagle dog after oral and IV administration; type: in vivo; parameters: AUC / CLs / Tmax / V/F (c): unit not given here; Cmax: unit: μg/mL
Cynomolgus monkeys = test: Cardiovascular safety in anesthetized Cynomolgus monkeys, escalating 15-minute IV infusions; type: in vivo, Cynomolgus monkey
Procedure: Female Cynomolgus monkeys were administered morphine (2 mg/kg subcutaneously) prior to induction of anesthesia. Monkeys were anesthetized with 1% α-chloralose (100 mg/kg intravenous), followed by a constant infusion of α-chloralose 40 mg/kg/hr, IV which was reduced to 30 mg/kg/hr approximately 92 to 98 min pre treatment due to low blood pressure. Monkeys were placed on a heating pad set to maintain the animal's body temperature at approximately 37° C. Body temperature was monitored throughout the experiment via a rectal thermometer or via the Swan Ganz (thermodilution catheter) once implanted. Monkeys were intubated and placed on a ventilator supplemented with oxygen to maintain oxygenation within the normal physiological range. The animals were mechanically ventilated at a rate of 12 breaths/minute and a pressure of 17-18 cm H2O. The following parameters were regularly monitored in order to ensure proper ventilation of the animals but are not reported: SpO2, inspiratory and expiratory CO2, inspiratory O2 and respiratory rate.
A Swan Ganz (thermodilution catheter) was inserted into the right femoral vein via phlebotomy and advanced into the pulmonary artery for cardiac output measurements. A catheter was inserted in the left femoral artery via an arteriotomy for blood gas determination. Another catheter was inserted in the left femoral vein for blood collection for toxicokinetic evaluation. Finally, an incision was also performed on the left side of the neck to expose the left carotid artery and an electronic dual pressure sensor catheter (Millar) was placed via arteriotomy and advanced into the left ventricle. The catheter was positioned to simultaneously collect left ventricle blood pressure measurements as well as aortic pressure. In addition, a temporary catheter was placed in any of the cephalic veins for administration of Lactated Ringers at 10 mL/kg/hr throughout the course of the experiment.
Following surgical preparation, hemodynamic and electrocardiographic parameters were allowed to stabilize for at least 15 minutes. The vehicle control and test article were then administered, and hemodynamic, electrocardiographic parameters were monitored. Histamine and plasma PK data was obtained.

sulcardine sulfate
Heart rate (dogs; time 10 minutes): 95.0 ± 7.6 bpm | Mean blood pressure (dogs; time 10 minutes): 165.3 ± 0.3 mmHg | Heart rate (dogs; time 25 minutes): 115.0 ± 5.8 bpm | Mean blood pressure (dogs; time 25 minutes): 167.7 ± 9.8 mmHg | Heart rate (dogs; time 40 minutes): 115.0 ± 5.0 bpm | Mean blood pressure (dogs; time 40 minutes): 162.7 ± 11.3 mmHg | Heart rate (dogs; time 55 minutes): 103.3 ± 6.0 bpm | Mean blood pressure (dogs; time 55 minutes): 152.0 ± 16.2 mmHg | effect of slow intravenous administration on resting blood pressure and/or heart rate (dogs; total intravenous dose of 14 mg/kg over 45 min): did not result in a marked change in resting blood pressure and/or heart rate | mean arterial pressure initial increase (anesthetized dogs; 10 mg/kg, one animal out of two, maximum at 10 minutes post start of dosing): +66% | QTc prolongation (anesthetized dogs; 10 mg/kg, within 5 minutes of initiation): ≤ 20 ms | maximum histamine plasma concentration (anesthetized dogs; 10 mg/kg, at 5 min and 10 min post-Rx respectively): 1874 nM and 1919 nM | maximum histamine plasma concentration (anesthetized dogs; 30 mg/kg): 251 nM and 183 nM | QTc prolongation (anesthetized dogs; 30 mg/kg infusion, cumulative): approximately 35 msec | maximum histamine plasma concentration (anesthetized dogs; 90 mg/kg): 99 nM and 64 nM | mortality (anesthetized dogs; 90 mg/kg, final 15-minute infusion): all animals succumbed | QRS widening (anesthetized dogs; all dose levels (10, 30, 90 mg/kg)): QRS widening was also noted at all dose levels | mean peak plasma concentration ([1]; 90 mg/kg, 15 minute infusion): 100.1 μg/mL and ~218 μM | Cmax ([1]; dogs, read-out: Cmax that led to observed side effects such as hypotension): 25 µM | AUC ([2]; 8 mg/kg fast i.v push): 4.750 ± 1.778 | CLs ([2]; 8 mg/kg fast i.v push): 1.850 ± 0.5911 | K10 ([2]; 8 mg/kg fast i.v push): 0.7378 ± 0.2645 h⁻¹ | K12 ([2]; 8 mg/kg fast i.v push): 1.982 ± 1.157 h⁻¹ | K21 ([2]; 8 mg/kg fast i.v push): 0.5196 ± 0.3149 h⁻¹ | T1/2α ([2]; 8 mg/kg fast i.v push): 0.2898 ± 0.2041 h | T1/2β ([2]; 8 mg/kg fast i.v push): 6.107 ± 1.537 h | V/F (c) ([2]; 8 mg/kg fast i.v push): 2.815 ± 1.714 | AUC ([2]; 40 mg/kg po): 19.57 ± 2.414 | CLs ([2]; 40 mg/kg po): 2.065 ± 0.2283 | Cmax ([2]; 40 mg/kg po): 2.121 ± 0.4025 | K12 ([2]; 40 mg/kg po): 0.1806 ± 0.0817 h⁻¹ | K21 ([2]; 40 mg/kg po): 0.1778 ± 0.1295 h⁻¹ | T1/2Ka ([2]; 40 mg/kg po): 0.5663 ± 0.1687 h | T1/2α ([2]; 40 mg/kg po): 1.636 ± 0.6148 h | T1/2β ([2]; 40 mg/kg po): 12.21 ± 3.412 h | V/F (c) ([2]; 40 mg/kg po): 12.08 ± 2.621 | AUC ([2]; 80 mg/kg po): 83.53 ± 21.27 | CLs ([2]; 80 mg/kg po): 1.013 ± 0.2956 | Cmax ([2]; 80 mg/kg po): 8.849 ± 1.789 | K10 ([2]; 80 mg/kg po): 0.1166 ± 0.0731 h⁻¹ | K12 ([2]; 80 mg/kg po): -8.226 ± 16.60 h⁻¹ | K21 ([2]; 80 mg/kg po): 10.10 ± 19.85 h⁻¹ | T1/2Ka ([2]; 80 mg/kg po): 0.3681 ± 0.2443 h | T1/2α ([2]; 80 mg/kg po): 1.670 ± 1.068 h | T1/2β ([2]; 80 mg/kg po): 8.631 ± 2.294 h | Tmax ([2]; 80 mg/kg po): 1.407 ± 0.6461 | V/F (c) ([2]; 80 mg/kg po): 16.60 ± 18.60 | AUC ([2]; 160 mg/kg po): 291.6 ± 29.13 | CLs ([2]; 160 mg/kg po): 0.5527 ± 0.0533 | Cmax ([2]; 160 mg/kg po): 19.10 ± 3.412 | K10 ([2]; 160 mg/kg po): 0.0856 ± 0.0155 h⁻¹ | K12 ([2]; 160 mg/kg po): -0.0620 ± 0.1371 h⁻¹ | K21 ([2]; 160 mg/kg po): 1.474 ± 1.562 h⁻¹ | T1/2Ka ([2]; 160 mg/kg po): 0.8257 ± 0.5284 h | T1/2α ([2]; 160 mg/kg po): 1.758 ± 1.790 h | T1/2β ([2]; 160 mg/kg po): 9.640 ± 1.532 h | Tmax ([2]; 160 mg/kg po): 2.700 ± 1.001 | V/F (c) ([2]; 160 mg/kg po): 6.528 ± 0.6551 | Cmax read from PK curve ([2]; dogs, IV 8 mg/kg): about 10 μg/mL | heart rate (HR) change (relatively stable) (Cynomolgus monkeys; 10 mg/kg): ≤ 10% | histamine levels (Cynomolgus monkeys; 10 mg/kg): no appreciable increases | PR interval increase (Cynomolgus monkeys; 10 mg/kg, per animal): +18% and +30% | increase of QRS from baseline (Cynomolgus monkeys; 10 mg/kg, per animal): 11% and 26% | conduction abnormality (Cynomolgus monkeys; 30 mg/kg infusion, animal 1501A): right bundle branch block (RBBB) | mean pulmonary arterial pressure increase (Cynomolgus monkeys; 30 mg/kg, at the completion of infusion): up to +245% | conduction abnormality (Cynomolgus monkeys; 90 mg/kg infusion / shortly before death, animal 1602B): sino-atrial block with a ventricular escape rhythm and RBBB | mortality (Cynomolgus monkeys; 90 mg/kg, before completion of the 15-minute infusion): death in both animals | QRS interval increase from baseline (Cynomolgus monkeys; 90 mg/kg, per animal): 88% and 133% | QTcB increase from baseline (Cynomolgus monkeys; 90 mg/kg, per animal): 78 ms and 112 ms | PR interval increase (Cynomolgus monkeys; 30 and 90 mg/kg): Further increases were noted | histamine levels (Cynomolgus monkeys; Animal No. 1501A, after 10 minutes of the 30 mg/kg infusion): transient increases | histamine levels (Cynomolgus monkeys; Animal No. 1602B, any dose levels): No appreciable increases
